Legend:
Experiment in all cases: Post-emergence foliage spray, pot culture, fresh weight inhibition (Tables 1-48, 51-98, 101-148; 24 days)
Type in all cases: in vivo
[1] = system: Abutilon theophrasti
How it was run: (§1)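 Greenhouse pot-grown weeds (15 per pot, 3 pots, 4 replicates) at the 5–6-leaf (grasses) or 6–7-leaf (broadleaf) stage were sprayed once on foliage at 450 kg/ha spray volume, 0.3 MPa. Acetone solutions were diluted in 0.1% Tween-80. Aboveground fresh weight versus blank control was recorded after 24 days.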

[2] = system: Xanthium strumarium
How it was run: as §1

[3] = system: Capsella bursa-pastoris
How it was run: as §1

[4] = system: Sinapis arvensis
How it was run: as §1

[5] = system: Sonchus arvensis
How it was run: as §1

[6] = system: Cirsium setosum; conditions: Table 111
How it was run: as §1

[7] = system: Stellaria media; conditions: Table 105
How it was run: (§2)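 Pot-grown weeds were thinned to 15 per pot (45 per treatment) and sprayed on foliage at the 5–6-leaf stage for grasses or the 6–7-leaf stage for broadleaves. Agents were dissolved in acetone with 0.1% Tween-80 and applied at 450 kg/ha spray volume and 0.3 MPa. Plants were then kept in a greenhouse. Above-ground fresh weight of survivors, with dead plants counted as zero, gave inhibition versus a solvent/emulsifier blank.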

[8] = system: Malachium aquaticum
How it was run: as §2

[9] = system: Galium aparine L.; conditions: 24 days
How it was run: as §2

[10] = system: Eclipta prostrate; conditions: 24 days
How it was run: as §1

[11] = system: Ammannia arenaria; conditions: Table 103
How it was run: as §1

[12] = system: Ludwigia prostrate
How it was run: as §1

[13] = system: Conyza Canadensis
How it was run: as §1

[14] = system: Sonchus oleraceus L.
How it was run: as §1

[15] = system: Ipomoea purpurea; conditions: Table 98
How it was run: as §1

[16] = system: Setaria faberi
How it was run: as §1

[17] = system: Setaria glauca; conditions: Table 84
How it was run: as §1

For `CC(C)N1C(=O)c2ccccc2NS1(=O)=O` [bentazone], the “Control effect (%) of B applied alone in corresponding dose” value (from here on “Control effect (%) of B applied alone”) ([1]; bentazone 18.75 g a.i./ha) was 5.9%, the “Control effect (%) of B applied alone” value ([1]; bentazone 37.5 g a.i./ha) was 11.8% and the “Control effect (%) of B applied alone” value ([1]; bentazone 75 g a.i./ha) was 49.0%. The “Control effect (%) of B applied alone” value ([1]; bentazone 150 g a.i./ha) was 69.1%, the “Control effect (%) of B applied alone” value ([2]; B 18.75 g a.i./ha) was 10.9% and the “Control effect (%) of B applied alone” value ([2]; B 37.5 g a.i./ha) was 16.1%. The “Control effect (%) of B applied alone” value ([2]; B 75 g a.i./ha) was 46.6% and the “Control effect (%) of B applied alone” value ([2]; B 150 g a.i./ha) was 76.5%.
With `Cc1nn(C)cc1C(=O)Oc1c(C(=O)c2ccc(C(F)(F)F)cc2S(C)(=O)=O)c(C)nn1C` [bipyrazone] the “Control effect (%) of B applied alone” value ([3]; bipyrazone 18.75 g a.i./ha) was 2.9%, the “Control effect (%) of B applied alone” value ([3]; bipyrazone 37.5 g a.i./ha) was 12.9% and the “Control effect (%) of B applied alone” value ([3]; bipyrazone 75 g a.i./ha) was 51.1%. The “Control effect (%) of B applied alone” value ([3]; bipyrazone 150 g a.i./ha) was 80.3%, the “Control effect (%) of B applied alone” value ([4]; B 1.875 g a.i./ha) was 9.9% and the “Control effect (%) of B applied alone” value ([4]; B 3.75 g a.i./ha) was 23.8%. The “Control effect (%) of B applied alone” value ([4]; B 7.5 g a.i./ha) was 50.8% and the “Control effect (%) of B applied alone” value ([4]; B 15 g a.i./ha) was 83.7%.
With `CCOc1nc(F)cc2nc(S(=O)(=O)Nc3c(Cl)cccc3C(=O)OC)nn12` [cloransulam-methyl] the “Control effect (%) of B applied alone” value ([5]; cloransulam-methyl 1.875 g a.i./ha) was 6.5%, the “Control effect (%) of B applied alone” value ([5]; cloransulam-methyl 3.75 g a.i./ha) was 15.0% and the “Control effect (%) of B applied alone” value ([5]; cloransulam-methyl 7.5 g a.i./ha) was 52.8%. The “Control effect (%) of B applied alone” value ([5]; cloransulam-methyl 15 g a.i./ha) was 72.9%, the “Control effect (%) of B applied alone” value ([6]; 1.875 g a.i./ha) was 13.6% and the “Control effect (%) of B applied alone” value ([6]; 3.75 g a.i./ha) was 23.1%. For the same compound, the “Control effect (%) of B applied alone” value ([6]; 7.5 g a.i./ha) was 53.8% and the “Control effect (%) of B applied alone” value ([6]; 15 g a.i./ha) was 71.9%.
With `COc1ncc(F)c2nc(S(=O)(=O)Nc3c(F)cccc3F)nn12` [florasulam] the “Control effect (%) of B applied alone” value ([7]; 0.375 g a.i./ha) was 6.8%, the “Control effect (%) of B applied alone” value ([7]; 0.75 g a.i./ha) was 22.3% and the “Control effect (%) of B applied alone” value ([7]; 1.5 g a.i./ha) was 56.9%. The “Control effect (%) of B applied alone” value ([7]; 3.0 g a.i./ha) was 76.6%, the “Control effect (%) of B applied alone” value ([8]; florasulam 0.375 g a.i./ha) was 3.6% and the “Control effect (%) of B applied alone” value ([8]; florasulam 0.75 g a.i./ha) was 17.4%. The “Control effect (%) of B applied alone” value ([8]; florasulam 1.5 g a.i./ha) was 56.4%, the “Control effect (%) of B applied alone” value ([8]; florasulam 3.0 g a.i./ha) was 77.6% and the “Control effect (%) of B applied alone” value ([9]; B 0.375 g a.i/ha) was 4.8%. The “Control effect (%) of B applied alone” value ([9]; B 0.75 g a.i/ha) was 20.6%, the “Control effect (%) of B applied alone” value ([9]; B 1.5 g a.i/ha) was 56.3% and the “Control effect (%) of B applied alone” value ([9]; B 3.0 g a.i/ha) was 76.2%.
For `CCOC(=O)c1cnn(C)c1S(=O)(=O)NC(=O)Nc1nc(OC)cc(OC)n1` [pyrazosulfuron-ethyl], the “Control effect (%) of B applied alone” value ([10]; B 1.875 g a.i/ha) was 9.5%, the “Control effect (%) of B applied alone” value ([10]; B 3.75 g a.i/ha) was 19.9% and the “Control effect (%) of B applied alone” value ([10]; B 7.5 g a.i/ha) was 51.0%. The “Control effect (%) of B applied alone” value ([10]; B 15 g a.i/ha) was 76.1%, the “Control effect (%) of B applied alone” value ([11]; 1.875 g a.i./ha) was 16.3% and the “Control effect (%) of B applied alone” value ([11]; 3.75 g a.i./ha) was 26.1%. The “Control effect (%) of B applied alone” value ([11]; 7.5 g a.i./ha) was 52.8%, the “Control effect (%) of B applied alone” value ([11]; 15 g a.i./ha) was 77.2% and the “Control effect (%) of B applied alone” value ([12]; pyrazosulfuron-ethyl 1.875 g a.i./ha) was 7.6%. The “Control effect (%) of B applied alone” value ([12]; pyrazosulfuron-ethyl 3.75 g a.i./ha) was 13.0%, the “Control effect (%) of B applied alone” value ([12]; pyrazosulfuron-ethyl 7.5 g a.i./ha) was 52.2% and the “Control effect (%) of B applied alone” value ([12]; pyrazosulfuron-ethyl 15 g a.i./ha) was 75.3%.
With `CC(C)N(C)S(=O)(=O)NC(=O)c1cc(-n2c(=O)cc(C(F)(F)F)n(C)c2=O)c(F)cc1Cl` [saflufenacil] the “Control effect (%) of B applied alone” value ([13]; saflufenacil 3.75 g a.i./ha) was 3.0%, the “Control effect (%) of B applied alone” value ([13]; saflufenacil 7.5 g a.i./ha) was 11.9% and the “Control effect (%) of B applied alone” value ([13]; saflufenacil 15 g a.i./ha) was 39.2%. For the same compound, the “Control effect (%) of B applied alone” value ([13]; saflufenacil 30 g a.i./ha) was 76.5%, the “Control effect (%) of B applied alone” value ([14]; B 3.75 g a.i./ha) was 5.4% and the “Control effect (%) of B applied alone” value ([14]; B 7.5 g a.i./ha) was 13.9%. For the same compound, the “Control effect (%) of B applied alone” value ([14]; B 15 g a.i./ha) was 40.9%, the “Control effect (%) of B applied alone” value ([14]; B 30 g a.i./ha) was 76.6% and the “Control effect (%) of B applied alone” value ([15]; 3.75 g a.i./ha) was 7.9%. The “Control effect (%) of B applied alone” value ([15]; 7.5 g a.i./ha) was 16.0%, the “Control effect (%) of B applied alone” value ([15]; 15 g a.i./ha) was 41.3% and the “Control effect (%) of B applied alone” value ([15]; 30 g a.i./ha) was 75.9%.
With `Cc1c(C(=O)c2cnn(C)c2O)ccc(S(C)(=O)=O)c1C1=NOCC1` [topramezone] the “Control effect (%) of B applied alone” value ([16]; B 1.875 g a.i./ha) was 3.2%, the “Control effect (%) of B applied alone” value ([16]; B 3.75 g a.i./ha) was 11.7% and the “Control effect (%) of B applied alone” value ([16]; B 7.5 g a.i./ha) was 36.5%. For the same compound, the “Control effect (%) of B applied alone” value ([16]; B 15 g a.i./ha) was 75.4%, the “Control effect (%) of B applied alone” value ([17]; 1.875 g a.i./ha) was 7.3% and the “Control effect (%) of B applied alone” value ([17]; 3.75 g a.i./ha) was 10.6%. The “Control effect (%) of B applied alone” value ([17]; 7.5 g a.i./ha) was 35.8% and the “Control effect (%) of B applied alone” value ([17]; 15 g a.i./ha) was 72.3%.

Reference: patent US20220264878A1, “HERBICIDAL COMPOSITION CONTAINING R-TYPE PYRIDYLOXY CARBOXYLIC ACID DERIVATIVE AND USE THEREOF” (Qingdao Kingagroot Chemical Compound Co., Ltd., priority 2019, published 2022)
